{"source": "paper PMC3792051", "about": "“Polyenylpyrrole Derivatives Inhibit NLRP3 Inflammasome Activation and Inflammatory Mediator Expression by Reducing Reactive Oxygen Species Production and Mitogen-Activated Protein Kinase Activation” (PLoS ONE, 2013)", "key": {"[1]": {"system": "LPS-activated J774A.1 macrophages", "experiment": "IL-6 and TNF-α secretion by ELISA", "type": "cell-based, murine", "conditions": "J774A.1, 10-40 µM, LPS 1 µg/ml 24 h", "protocol": "(§1) The effects of the test samples on IL-1β, TNF-α, and IL-6 production were measured by ELISA according to the manufacturer’s instructions. In brief, 50 µl of biotinylated antibody reagent and 50 µl of supernatant were added to a stripwell plate precoated with anti-mouse IL-1β, TNF-α, or IL-6 antibodies, which was then incubated at room temperature for 2 h. After washing the plate three times with washing buffer, 100 µl of diluted streptavidin-HRP concentrate was added to each well and the plate incubated at room temperature for 30 min. The washing process was repeated, then 100 µl of a premixed tetramethylbenzidine substrate solution was added to each well and the plate incubated at room temperature in the dark for 30 min. After addition of 100 µl of stop solution to each well, the absorbance at 450 nm of each well was measured on a microplate reader.\n(§2) Figure 3 Effect of compound 1h on LPS-induced secretion of IL-6 and TNF-α by J774A.1 macrophages, peritoneal macrophages, and JAWSII dendritic cells. (A) J774A.1 macrophages, (B) peritoneal macrophages, or (C) JAWSII dendritic cells (all 4 × 10^5/ml; 1 ml) were incubated for 30 min with 10-40 µM compound 1h or DMSO, then LPS (1 µg/ml) was added and incubation continued for 24 h, then IL-6 levels (left panels) and TNF-α levels (right panels) in the culture medium were measured by ELISA. The data are expressed as the mean ± SD for three separate experiments. *, **, and *** indicate a significant difference at the level of p < 0.05, p < 0.01, or p < 0.001, respectively, compared to the DMSO/LPS group."}, "[2]": {"system": "LPS-activated JAWSII dendritic cells", "experiment": "IL-6 and TNF-α secretion by ELISA", "type": "cell-based, murine", "conditions": "10-40 µM, LPS 1 µg/ml 24 h", "protocol": "as §1, §2"}, "[3]": {"system": "RAW-Blue cells (RAW 264.7 with NF-κB reporter gene)", "experiment": "NF-κB reporter assay (SEAP, QUANTI-Blue)", "type": "cell-based, murine", "conditions": "2.5-40 µM 30 min, LPS 1 µg/ml 24 h", "protocol": "RAW-Blue™ cells, RAW 264.7 macrophages stably expressing the gene for secreted embryonic alkaline phosphatase (SEAP) inducible by NF-κB, were seeded in 60 mm dishes at a density of 5 × 10^5 cells/ml (1 ml) and grown overnight in a 5% CO2 incubator at 37 °C. They were then pretreated with vehicle or compound 1h for 30 min, then LPS (1 µg/ml) was added and incubation continued for 24 h. The medium was then harvested and 20 µl aliquots mixed with 200 µl of QUANTI-Blue™ medium (InvivoGen) in 96-well plates and incubated at 37 °C for 15 min, then SEAP activity was assessed by measuring the optical density at 655 nm using an ELISA reader.\nFollowing LPS stimulation, IκB in the complex is phosphorylated by IκB kinase (IKK), ubiquitinated, and rapidly degraded in proteasomes, thus releasing NF-κB [30].\nFigure 6 Effect of compound 1h on NF-κB activation in LPS-activated macrophages. (A) RAW 264.7 macrophages or (B) J774A.1 macrophages (both 5 × 10^5/ml; 1 ml) were incubated for 30 min with 10-40 µM compound 1h or DMSO, then LPS (1 µg/ml) was added and incubation continued for 20 min, then levels of phosphorylated and total IKK-α and IκB-α were measured by Western blotting. (C) RAW 264.7 macrophages or (D) J774A.1 macrophages (both 5 × 10^5/ml; 1 ml) were treated as in A and B, then nuclear translocation of NF-κB was analyzed by ELISA. […]"}, "[4]": {"system": "NLRP3 inflammasome in LPS+ATP-activated peritoneal macrophages", "experiment": "NLRP3 inflammasome-mediated IL-1β secretion (ELISA)", "type": "cell-based, mouse", "conditions": "compound 10-40 µM 30 min before LPS 5.5 h, then ATP 5 mM 30 min", "protocol": "as §1, with “The washing process was repeated, then 100 µl of a premixed tetramethylbenzidine substrate solution was added to each well and the plate incubated at room temperature in the dark for 30 min.” left out, “reader. […]” for “reader.”\nFigure 4 Effect of compound 1h on NLRP3 inflammasome activation in LPS+ATP-activated J774A.1 macrophages. (A) J774A.1 macrophages (1 × 10^6/ml; 1 ml) or (B) peritoneal macrophages (1 × 10^5/ml; 1 ml) were incubated with 10-40 µM compound 1h or DMSO for 30 min, then LPS (1 µg/ml) was added and incubation continued for 5.5 h, then the cells were stimulated with ATP (5 mM) for an additional 30 min, then IL-1β in the culture medium was measured by ELISA (A, upper panel; B) and levels of active caspase-1 (p10) (A, lower panel) measured by Western blotting. […]"}}, "data": [{"smiles": "O=c1cc(O)cc(/C=C/C=C/C=C/C=C/c2[nH]ccc2Cl)o1", "note": "[compound 1h]", "values": [{"measurement": "LPS-induced IL-6 secretion", "setting": "[1]", "value": "reduced secretion of IL-6 and TNF-α"}, {"measurement": "LPS-induced TNF-α secretion", "setting": "[1]", "value": "reduced secretion of IL-6 and TNF-α"}, {"measurement": "LPS-induced IL-6 secretion", "setting": "[2]", "value": "reduced LPS-induced IL-6 and TNF-α secretion"}, {"measurement": "LPS-induced TNF-α secretion", "setting": "[2]", "value": "reduced LPS-induced IL-6 and TNF-α secretion"}, {"measurement": "NF-κB transcriptional activity (SEAP reporter)", "setting": "[3]", "value": "reduced"}, {"measurement": "IL-1β secretion", "setting": "[4]", "value": "inhibited IL-1β secretion by primary peritoneal macrophages"}]}]}
